# Laboratory results reported in US10238670B2, “9-aminomethyl minocycline compounds and methods of use thereof in urinary tract infection (UTI) treatment” (Paratek Pharmaceuticals, Inc., priority 2016, dated 2019).
# Read-outs that look alike come from different tables or passages of the source.
# How the values were obtained:
# Experiment in all cases: In vitro MIC, 2010 surveillance isolates
# Acinetobacter spp = type: cell-based; conditions: for range of MICs (N <10, shown instead of MIC90): N=9
# K. pneumoniae ESBL+ = type: cell-based, Klebsiella pneumoniae; conditions: for Cumulative % Inhibition at MIC: N=592
# E. coli ESBL+ = type: cell-based, Escherichia coli; conditions: for Cumulative % Inhibition at MIC: N=795
# E. coli ESBL− = type: cell-based, Escherichia coli; conditions: for Cumulative % Inhibition at MIC: N=3376
# K. pneumoniae ESBL− = type: cell-based, Klebsiella pneumoniae; conditions: for Cumulative % Inhibition at MIC: N=1381
# A. baumanii = type: cell-based
# E. faecalis VNS = type: cell-based; conditions: for Cumulative % Inhibition at MIC: N=54
# E. faecium VS = type: cell-based; conditions: for Cumulative % Inhibition at MIC: N=575
# MR CoNS = type: cell-based, Coagulase-Negative Staphylococcus; conditions: for Cumulative % Inhibition at MIC: N=1349
# Enterobacter spp = type: cell-based
# E. cloacae CeftazR = type: cell-based; conditions: for Cumulative % Inhibition at MIC: N=254
# MSSA = type: cell-based; conditions: for Cumulative % Inhibition at MIC: N=5713
# MS CoNS = type: cell-based, Coagulase-Negative Staphylococcus; conditions: for Cumulative % Inhibition at MIC: N=461
# E. cloacae CeftazS = type: cell-based; conditions: for Cumulative % Inhibition at MIC: N=550
# MRSA = type: cell-based; conditions: for Cumulative % Inhibition at MIC: N=4192
# E. faecalis VS = type: cell-based; conditions: for Cumulative % Inhibition at MIC: N=2036
# E. faecium VNS = type: cell-based; conditions: for Cumulative % Inhibition at MIC: N=614
smiles,measurement,setting,value
"CN(C)c1cc(CNCC(C)(C)C)c(O)c2c1C[C@H]1C[C@H]3[C@H](N(C)C)C(O)=C(C(N)=O)C(=O)[C@@]3(O)C(O)=C1C2=O [Compound 1, 9-[(2,2-dimethyl-propylamino)-methyl]-minocycline]","range of MICs (N <10, shown instead of MIC90)",Acinetobacter spp; Asia/Pac,0.06-2
same,MIC90,"Acinetobacter spp; Europe, N=43",4 µg/mL
same,"range of MICs (N <10, shown instead of MIC90)",Acinetobacter spp; L. Amer,0.03-4
same,MIC90,"Acinetobacter spp; N America, N=42",2 µg/mL
same,MIC90,"K. pneumoniae ESBL+; Asia/Pac, N=124",16 µg/mL
same,MIC90,"K. pneumoniae ESBL+; Europe, N=151",8 µg/mL
same,MIC90,"K. pneumoniae ESBL+; L. Amer, N=209",16 µg/mL
same,Cumulative % Inhibition at MIC,K. pneumoniae ESBL+; MIC 1 μg/ml,19.3%
same,Cumulative % Inhibition at MIC,K. pneumoniae ESBL+; MIC 2 μg/ml,56.8%
same,Cumulative % Inhibition at MIC,K. pneumoniae ESBL+; MIC 4 μg/ml,79.6%
same,Cumulative % Inhibition at MIC,K. pneumoniae ESBL+; MIC 8 μg/ml,90.2%
same,Cumulative % Inhibition at MIC,K. pneumoniae ESBL+; MIC 16 μg/ml,94.8%
same,Cumulative % Inhibition at MIC,"K. pneumoniae ESBL+; MIC ≤0.5 μg/ml, listed as head image P00010",1.7%
same,Cumulative % Inhibition at MIC,K. pneumoniae ESBL+; MIC ≥32 μg/ml,100%
same,MIC90,"K. pneumoniae ESBL+; N America, N=108",16 µg/mL
same,MIC90,"E. coli ESBL+; Asia/Pac, N=219",2 µg/mL
same,MIC90,E. coli ESBL+; ESBL-producing E. coli,4 µg/mL
same,MIC90,"E. coli ESBL+; Escherichia coli, ESBL-producing E. coli, read-out: MIC90",< 4 µg/mL
same,MIC90,"E. coli ESBL+; Europe, N=274",4 µg/mL
same,MIC90,"E. coli ESBL+; L. Amer, N=168",4 µg/mL
same,Cumulative % Inhibition at MIC,E. coli ESBL+; MIC 1 μg/ml,63.0%
same,Cumulative % Inhibition at MIC,E. coli ESBL+; MIC 2 μg/ml,87.5%
same,Cumulative % Inhibition at MIC,E. coli ESBL+; MIC 4 μg/ml,97.7%
same,Cumulative % Inhibition at MIC,E. coli ESBL+; MIC 8 μg/ml,99.5%
same,Cumulative % Inhibition at MIC,E. coli ESBL+; MIC 16 μg/ml,99.9%
same,Cumulative % Inhibition at MIC,"E. coli ESBL+; MIC ≤0.5 μg/ml, listed as head image P00006",30.4%
same,Cumulative % Inhibition at MIC,E. coli ESBL+; MIC ≥32 μg/ml,100%
same,MIC90,"E. coli ESBL+; N America, N=134",4 µg/mL
same,MIC90,"E. coli ESBL−; Asia/Pac, N=282",2 µg/mL
same,MIC90,"E. coli ESBL−; Escherichia coli, ESBL-negative E. coli, read-out: MIC90",2 µg/mL
same,MIC90,"E. coli ESBL−; Europe, N=1533",2 µg/mL
same,MIC90,"E. coli ESBL−; L. Amer, N=389",2 µg/mL
same,Cumulative % Inhibition at MIC,E. coli ESBL−; MIC 1 μg/ml,84.2%
same,Cumulative % Inhibition at MIC,E. coli ESBL−; MIC 2 μg/ml,95.9%
same,Cumulative % Inhibition at MIC,E. coli ESBL−; MIC 4 μg/ml,99.3%
same,Cumulative % Inhibition at MIC,E. coli ESBL−; MIC 8 μg/ml,99.9%
same,Cumulative % Inhibition at MIC,E. coli ESBL−; MIC 16 μg/ml,100%
same,Cumulative % Inhibition at MIC,"E. coli ESBL−; MIC ≤0.5 μg/ml, listed as head image P00005",54.2%
same,Cumulative % Inhibition at MIC,E. coli ESBL−; MIC ≥32 μg/ml,100%
same,MIC90,"E. coli ESBL−; N America, N=1172",2 µg/mL
same,MIC90,"K. pneumoniae ESBL−; Asia/Pac, N=189",4 µg/mL
same,MIC90,"K. pneumoniae ESBL−; Europe, N=361",4 µg/mL
same,MIC90,"K. pneumoniae ESBL−; L. Amer, N=160",4 µg/mL
same,Cumulative % Inhibition at MIC,K. pneumoniae ESBL−; MIC 1 μg/ml,29.1%
same,Cumulative % Inhibition at MIC,K. pneumoniae ESBL−; MIC 2 μg/ml,79.9%
same,Cumulative % Inhibition at MIC,K. pneumoniae ESBL−; MIC 4 μg/ml,92.1%
same,Cumulative % Inhibition at MIC,K. pneumoniae ESBL−; MIC 8 μg/ml,95.6%
same,Cumulative % Inhibition at MIC,K. pneumoniae ESBL−; MIC 16 μg/ml,98.3%
same,Cumulative % Inhibition at MIC,"K. pneumoniae ESBL−; MIC ≤0.5 μg/ml, listed as head image P00009",2.4%
same,Cumulative % Inhibition at MIC,K. pneumoniae ESBL−; MIC ≥32 μg/ml,100%
same,MIC90,"K. pneumoniae ESBL−; N America, N=671",4 µg/mL
same,MIC90,"A. baumanii; Asia/Pac, N=275",4 µg/mL
same,MIC90,"A. baumanii; Europe, N=145",4 µg/mL
same,MIC90,"A. baumanii; L. Amer, N=275",4 µg/mL
same,MIC90,"A. baumanii; N America, N=154",8 µg/mL
same,"range of MICs (N <10, shown instead of MIC90)","E. faecalis VNS; Asia/Pac, N=1",0.5
same,"range of MICs (N <10, shown instead of MIC90)","E. faecalis VNS; Europe, N=8",0.06-0.5
same,"range of MICs (N <10, shown instead of MIC90)","E. faecalis VNS; L. Amer, N=7",≤0.015-0.06
same,Cumulative % Inhibition at MIC,E. faecalis VNS; MIC 1 μg/ml,100%
same,Cumulative % Inhibition at MIC,"E. faecalis VNS; MIC ≤0.5 μg/ml, listed as head image P00002",98.1%
same,MIC90,"E. faecalis VNS; N America, N=38",0.25 µg/mL
same,MIC90,"E. faecium VS; Asia/Pac, N=106",0.25 µg/mL
same,MIC90,"E. faecium VS; Europe, N=303",0.12 µg/mL
same,MIC90,"E. faecium VS; L. Amer, N=51",0.12 µg/mL
same,Cumulative % Inhibition at MIC,E. faecium VS; MIC 1 μg/ml,100%
same,Cumulative % Inhibition at MIC,"E. faecium VS; MIC ≤0.5 μg/ml, listed as head image P00003",99.8%
same,MIC90,"E. faecium VS; N America, N=115",0.25 µg/mL
same,MIC90,"MR CoNS; Asia/Pac, N=77",1 µg/mL
same,MIC90,"MR CoNS; Europe, N=510",1 µg/mL
same,MIC90,"MR CoNS; L. Amer, N=301",1 µg/mL
same,Cumulative % Inhibition at MIC,MR CoNS; MIC 1 μg/ml,99.1%
same,Cumulative % Inhibition at MIC,MR CoNS; MIC 2 μg/ml,100%
same,Cumulative % Inhibition at MIC,MR CoNS; MIC ≤0.5 μg/ml,85.9%
same,MIC90,"MR CoNS; N America, N=461",1 µg/mL
same,MIC90,"Enterobacter spp; Asia/Pac, N=52",16 µg/mL
same,MIC90,"Enterobacter spp; Europe, N=82",4 µg/mL
same,MIC90,"Enterobacter spp; L. Amer, N=42",4 µg/mL
same,MIC90,"Enterobacter spp; N America, N=101",4 µg/mL
same,MIC90,"E. cloacae CeftazR; Asia/Pac, N=63",8 µg/mL
same,MIC90,"E. cloacae CeftazR; Europe, N=72",8 µg/mL
same,MIC90,"E. cloacae CeftazR; L. Amer, N=42",4 µg/mL
same,Cumulative % Inhibition at MIC,E. cloacae CeftazR; MIC 1 μg/ml,7.9%
same,Cumulative % Inhibition at MIC,E. cloacae CeftazR; MIC 2 μg/ml,54.3%
same,Cumulative % Inhibition at MIC,E. cloacae CeftazR; MIC 4 μg/ml,81.9%
same,Cumulative % Inhibition at MIC,E. cloacae CeftazR; MIC 8 μg/ml,90.2%
same,Cumulative % Inhibition at MIC,E. cloacae CeftazR; MIC 16 μg/ml,94.1%
same,Cumulative % Inhibition at MIC,"E. cloacae CeftazR; MIC ≤0.5 μg/ml, listed as head image P00015",0.4%
same,Cumulative % Inhibition at MIC,E. cloacae CeftazR; MIC ≥32 μg/ml,100%
same,MIC90,"E. cloacae CeftazR; N America, N=77",16 µg/mL
same,MIC90,"MSSA; Asia/Pac, N=641",0.5 µg/mL
same,MIC90,"MSSA; Europe, N=2109",0.25 µg/mL
same,MIC90,"MSSA; L. Amer, N=590",0.25 µg/mL
same,Cumulative % Inhibition at MIC,MSSA; MIC 1 μg/ml,99.9%
same,Cumulative % Inhibition at MIC,MSSA; MIC 2 μg/ml,100%
same,Cumulative % Inhibition at MIC,MSSA; MIC ≤0.5 μg/ml,99.7%
same,MIC90,"MSSA; N America, N=2373",0.25 µg/mL
same,MIC90,"MS CoNS; Asia/Pac, N=18",0.25 µg/mL
same,MIC90,"MS CoNS; Europe, N=185",1 µg/mL
same,MIC90,"MS CoNS; L. Amer, N=67",0.5 µg/mL
same,Cumulative % Inhibition at MIC,MS CoNS; MIC 1 μg/ml,99.8%
same,Cumulative % Inhibition at MIC,MS CoNS; MIC 2 μg/ml,100%
same,Cumulative % Inhibition at MIC,MS CoNS; MIC ≤0.5 μg/ml,92.4%
same,MIC90,"MS CoNS; N America, N=191",0.5 µg/mL
same,MIC90,"E. cloacae CeftazS; Asia/Pac, N=100",4 µg/mL
same,MIC90,"E. cloacae CeftazS; Europe, N=183",4 µg/mL
same,MIC90,"E. cloacae CeftazS; L. Amer, N=57",8 µg/mL
same,Cumulative % Inhibition at MIC,E. cloacae CeftazS; MIC 1 μg/ml,15.3%
same,Cumulative % Inhibition at MIC,E. cloacae CeftazS; MIC 2 μg/ml,70.5%
same,Cumulative % Inhibition at MIC,E. cloacae CeftazS; MIC 4 μg/ml,93.3%
same,Cumulative % Inhibition at MIC,E. cloacae CeftazS; MIC 8 μg/ml,95.6%
same,Cumulative % Inhibition at MIC,E. cloacae CeftazS; MIC 16 μg/ml,97.8%
same,Cumulative % Inhibition at MIC,"E. cloacae CeftazS; MIC ≤0.5 μg/ml, listed as head image P00014",0.5%
same,Cumulative % Inhibition at MIC,E. cloacae CeftazS; MIC ≥32 μg/ml,100%
same,MIC90,"E. cloacae CeftazS; N America, N=210",4 µg/mL
same,MIC90,"MRSA; Asia/Pac, N=428",1 µg/mL
same,MIC90,"MRSA; Europe, N=750",0.25 µg/mL
same,MIC90,"MRSA; L. Amer, N=506",0.25 µg/mL
same,Cumulative % Inhibition at MIC,MRSA; MIC 1 μg/ml,98.4%
same,Cumulative % Inhibition at MIC,MRSA; MIC 2 μg/ml,99.8%
same,Cumulative % Inhibition at MIC,MRSA; MIC 4 μg/ml,100%
same,Cumulative % Inhibition at MIC,MRSA; MIC ≤0.5 μg/ml,95.4%
same,MIC90,"MRSA; N America, N=2508",0.5 µg/mL
same,MIC90,"E. faecalis VS; Asia/Pac, N=214",0.5 µg/mL
same,MIC90,"E. faecalis VS; Europe, N=669",0.25 µg/mL
same,MIC90,"E. faecalis VS; L. Amer, N=290",0.25 µg/mL
same,Cumulative % Inhibition at MIC,E. faecalis VS; MIC 1 μg/ml,99.9%
same,Cumulative % Inhibition at MIC,E. faecalis VS; MIC 2 μg/ml,100%
same,Cumulative % Inhibition at MIC,"E. faecalis VS; MIC ≤0.5 μg/ml, listed as head image P00001",99.3%
same,MIC90,"E. faecalis VS; N America, N=863",0.5 µg/mL
same,MIC90,"E. faecium VNS; Asia/Pac, N=24",0.25 µg/mL
same,MIC90,"E. faecium VNS; Europe, N=71",0.25 µg/mL
same,MIC90,"E. faecium VNS; L. Amer, N=41",0.12 µg/mL
same,Cumulative % Inhibition at MIC,E. faecium VNS; MIC 1 μg/ml,100%
same,Cumulative % Inhibition at MIC,"E. faecium VNS; MIC ≤0.5 μg/ml, listed as head image P00004",98.4%
same,MIC90,"E. faecium VNS; N America, N=478",0.25 µg/mL
